Reference: BigSolDB 2.1

Cc1coc2c1C(=O)C(=O)c1c-2ccc2c(C)cccc12
solubility (mole fraction)
Details	278.15 K	283.15 K	288.15 K	293.15 K	298.15 K	303.15 K	308.15 K	313.15 K	318.15 K	323.15 K
in DMF	0.000919	0.00106	0.00125	0.00146	0.00169	0.00193	0.0022	0.00249	0.00288	0.00335
in acetone	0.00103	0.0012	0.0014	0.00164	0.00194	0.00221	0.00253	0.00287	0.00324	0.0036
in ethanol	6.4e-05	8.08e-05	9.82e-05	0.00012	0.000144	0.000167	0.000198	0.000233	0.000275	0.000332
in ethylene glycol	8.39e-05	9.79e-05	0.000114	0.000132	0.000152	0.000175	0.000201	0.000232	0.000269	0.000317
in isopropanol	0.00029	0.000334	0.000395	0.000456	0.000535	0.000626	0.000729	0.000849	0.00101	0.0012
in methanol	5.56e-05	6.11e-05	6.79e-05	7.64e-05	8.61e-05	9.8e-05	0.000111	0.00013	0.000154	0.000182
in n-butanol	0.000574	0.000636	0.000706	0.000793	0.000903	0.00103	0.00117	0.00135	0.00154	0.00178
in n-propanol	0.000448	0.00051	0.000575	0.00067	0.000756	0.000866	0.000987	0.00113	0.0013	0.00151
in water	5.28e-08	5.74e-08	6.23e-08	6.81e-08	7.47e-08	8.25e-08	9.26e-08	1.04e-07	1.17e-07	1.34e-07
